Consider twelve molecules from patent publication US20120071493A1, “SUBSTITUTED 8-SULFONYL-2,3,4,5-TETRAHYDRO-1H-GAMMA-CARBOLINES, LIGANDS AND PHARMACEUTICAL COMPOSITION; METHOD FOR THE PRODUCTION AND USE OF SAME” (priority 2009, published 2012).

Test [1] addresses T1, recombinant human 5-HT6 receptor (Homo sapiens, UniProt P50406).
T1 construct: host or cells: HEK 293 cells with tetracycline-induced T-Rex system (Invitrogen)
Nature of the test: Antagonistic activity towards serotonin 5-HT6 receptors, cAMP cell function experiment. As to conditions: HEK 293 cells expressing recombinant human 5-HT6 receptor; cAMP response to 10 μM serotonin; read-out: IC50, ability to block serotonin 5-HT6 receptors in the setting of cell function experiments. The test is classed as cell-based. How it is done: Determination of antagonistic activity of substituted 8-sulfonyl-2,3,4,5-tetrahydro-1H-γ-carbolines of the general formula 1 towards serotonin 5-HT6 receptors. HEK 293 cells with tetracycline-induced T-Rex system (Invitrogen, USA) consistently expressing recombinant human 5-HT6 receptor, production of Etogen Scientific (USA), were used. The cells were grown in DMEM/10% FBS/1% AAS medium with Blasticidine S and Zeocin (both—Invitrogen, USA). According to the method worked up by the producer of T-Rex system tetracycline hydrochloride was added to the medium with the cells for the purpose of activation of 5-HT6 receptor expression. The cells were embedded in 96-well plates (30,000-40,000 cells per well) and incubated in 5%-CO2 incubator at 37° C. for 24 hs. Before experiments cells medium was replaced by Hank's balanced salt solution (HBSS), comprising 0.137 M NaCl, 5.4 mM KCl, 0.25 mM Na2HPO4, 0.44 mM KH2PO4, 1.3 mM CaCl2, 1.0 mM MgSO4, 5 mM HEPES (pH 7.4), 0.05% BSA and 1 mM IBMX. The tested compounds of general formula 1 were added to the cells in various concentrations. After incubation of the cells for 15 min at room temperature serotonin was added to them up to final concentration of 10 μM and incubation was continued for 30 min. The newly formed cAMP was determined by reagent kit LANCE cAMP Kit, according to the method described by the kit manufacturer […] (PerkinElmer, CIIIA). […] The data given testify that novel γ-carbolines of the general formula 1 are effective serotonin 5-HT6 receptor antagonists. Some of γ-carbolines of the general formula 1 have IC50<0.5 μM in the setting of cell function experiments (IC50—antagonist concentration blocking 5-HT6 receptors for 50%).

The test system of another test is male mice of BALB/c line. The test can be described thus: Mice Behavior in the Elevated Plus Maze test. Type of test: in vivo. How it is done: The experiments were carried out in aged male mice of BALB/c line weighing about 25 g. Animals were housed 5-7 per cage with water and food available. None of animals was acquainted with experimental set-up before. Each experimental group included 8 animals.
The procedure used was described earlier by Lister (Lister R. G. The use of a plus-maze to measure anxiety in the mouse. Psychopharmacology, 1987; 92:180-185). Plexiglass set-up consisted of two opened arms of 30×5 cm size and two closed arms of 30×5×15 cm size was used. Side arms were closed with transparent plexiglass and were connected with central zone via platform of 5×5 cm size. Opened arms, central platform and floor were made of black plexiglass. The set-up was mounted on a metallic base which was placed 38.5 cm above floor level.
Animals were injected intraperitoneally with placebo, Buspirone (5 mg/kg, 30 minutes before training), Lorazepam (0.05 mg/kg, 60 minutes before training) or with one of the compounds of the general formula 1, for example, compound 1.1.1(4).HCl or compound 1.2.1(3).HCl in doses 0.05 mg/kg and 0.2 mg/kg. Buspirone and Lorazepam were introduced in maximal effective dose, at which side sedative effect and general decrease of exploratory activity (number of arm entries during the test) were not observed yet.
Each mouse was placed in maze center with its head towards the opened arm. Over a period of 5 minutes the sequence and duration of arm entries were registered by means of computer program. Criterion for entry is location of all animal's paws inside the arm at the same time. Index of preference was calculated as ratio of the time spent by animal in opened arms as well as the number of entries into opened arms to the total time spent by it in opened and closed arms or, respectively, to the whole number of entries to arms of both types. The number of defecations left by mouse was regarded as additional parameter characterizing anxiety state.

The subject of another test is male mice of SHK line. The test can be described thus: Novel Object Recognition test, Scopolamine-disturbed recognition. Type of test: in vivo. The settings on record: Scopolamine 1 mg/kg. How it is done: The test was carried out in aged male mice of SHK line. Plexiglass plus maze, consisted of 4 dead-end chambers (numbered 1, 2, 3, 4), joined together through the fifth central chamber, was used in experiments. Mouse was placed into central chamber and allowed to explore the maze. Floor was cleaned after each animal. The sequence of chamber entries and duration of visits were registered by observer. Test was ended after 13 entries into dead-end chambers. Criterion for entry was location of all animal's paws inside the chamber at the same time.
During the training an animal was placed in the maze with one equiform bowl in each side chamber. In the course of testing (one hour after training) two opposite standing bowls were replaced by identical flasks, and animal was allowed to explore the maze. The time spent by animal in each side chamber was registered during the periods of training and testing. Index of novel object recognition was calculated as ratio of time spent by animal in side chambers with novel objects to the total time spent by it in all side chambers. In comparison with the training phase the appearance of novel object extends the time spent by animal in the chamber with novel object (so-called effect of novel object recognition). The recognition of novel objects was disturbed under action of Scopolamine administered in 1 mg/kg dose intraperitoneally 30 minutes before training, and recognition index was decreased.

Where a name gives a salt, the structure may show the parent alone.

T1 sequence (P50406 whole entry): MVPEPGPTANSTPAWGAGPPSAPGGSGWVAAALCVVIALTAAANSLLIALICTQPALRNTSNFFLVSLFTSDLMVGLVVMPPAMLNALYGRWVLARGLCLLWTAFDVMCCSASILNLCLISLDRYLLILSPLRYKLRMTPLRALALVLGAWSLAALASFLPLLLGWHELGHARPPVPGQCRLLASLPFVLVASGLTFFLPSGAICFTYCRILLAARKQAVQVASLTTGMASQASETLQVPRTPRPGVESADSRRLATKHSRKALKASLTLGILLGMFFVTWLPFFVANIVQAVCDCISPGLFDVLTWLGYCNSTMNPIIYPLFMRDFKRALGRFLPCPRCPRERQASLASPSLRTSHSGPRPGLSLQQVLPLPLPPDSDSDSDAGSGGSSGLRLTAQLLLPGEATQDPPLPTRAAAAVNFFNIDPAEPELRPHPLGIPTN

As for `CN1CCc2[nH]c3ccc(S(=O)(=O)c4cccnc4)cc3c2C1` [1.1(1)•2HCl], the IC50 (usually the concentration needed to halve the response being measured) in test [1] was 0.085 µM. On to `CN1CCc2[nH]c3ccc(S(=O)(=O)c4ccncc4)cc3c2C1` [1.1(2)•2HCl], for which, in test [1], the IC50 is 6.9 µM. In the case of `Cc1ccc(S(=O)(=O)n2c3c(c4cc(S(=O)(=O)c5ccccc5)ccc42)CN(C)CC3)cc1` [1.1(10)•HCl, 2-Methyl-5-(4-methylphenylsulfonyl)-8-(phenylsulfonyl)-2,3,4,5-tetrahydro-1H-γ-caboline hydrochloride], in test [1], the IC50 is about 10 µM. Still for that read-out and setting: to `CN1CCc2c(c3cc(S(=O)(=O)c4ccccc4)ccc3n2CCc2ccccn2)C1` [1.1(16)•2HCl] belongs 0.615 µM. `CN1CCc2[nH]c3ccc(S(=O)(=O)c4cccc(F)c4)cc3c2C1` [1.1.1(3)•HCl]: the IC50 in test [1] worked out at 0.085 µM. Regarding `CN1CCc2[nH]c3ccc(S(=O)(=O)N(C)C)cc3c2C1` [1.2(1), N,N,2-Trimethyl-2,3,4,5-tetrahydro-1H-γ-carboline-8-sulfonamide], the half-maximal inhibitory concentration (IC50) in test [1] is about 10 µM.

For the molecule `O=S(=O)(Nc1cccc(F)c1)c1ccc2[nH]c3c(c2c1)CN(Cc1ccccc1)CC3` [1.2(6)•HCl], in test [1], the IC50 worked out at 0.022 µM.

As to `CN1CCN(S(=O)(=O)c2ccc3[nH]c4c(c3c2)CN(C)CC4)CC1` [1.2(10)], in test [1], the IC50 came out at 62 µM. On to `O=C1CC2(CCCC2)CC(=O)N1CCCCN1CCN(c2ncccn2)CC1` [Buspirone, reference compound], for which the “anxiolytic effect in elevated plus maze” value in the test on male mice of BALB/c line (5 mg/kg intraperitoneally, 30 minutes before training) is on record as “well-marked anxiolytic effect”.

Take `Cc1ccc2c(c1)c1c(n2CCc2ccc(C)nc2)CCN(C)C1` [Dimebon, reference compound]: in the test on male mice of SHK line (0.1 mg/kg intraperitoneally 5 minutes before training), the “prevention of Scopolamine influence on novel object recognition” value is reported as “could be prevented”. For the molecule `O=C1Nc2ccc(Cl)cc2C(c2ccccc2Cl)=NC1O` (stereo not drawn) [Lorazepam, reference compound], the “anxiolytic effect in elevated plus maze” value in the test on male mice of BALB/c line (0.05 mg/kg intraperitoneally, 60 minutes before training) is on record as “well-marked anxiolytic effect”. On to `Nc1c2c(nc3ccccc13)CCCC2` [Tacrine, reference compound], for which, in the test on male mice of SHK line (10 mg/kg intraperitoneally 30 minutes before training), the “prevention of Scopolamine influence on novel object recognition” value is “could be prevented”.
